Measured values reported in patent US7132425B2, “5-substituted-six-membered heteroaromatic glucokinase activators” (Hoffmann-La Roche Inc., priority 2002, dated 2006).

System: C57BL/6J mice
Experiment: Glucokinase activator in vivo screen (blood glucose after oral dosing)
Settings: oral gavage 50 mg/kg after two hour fast, readings 1, 2, 4 and 6 hours post dose, p≦0.05 for two consecutive assay time points
Protocol: Glucokinase Activator in vivo Screen Protocol: C57BL/6J mice are orally dosed via gavage with Glucokinase (GK) activator at 50 mg/kg body weight following a two hour fasting period. Blood glucose determinations are made five times during the six hour post-dose study period.
Mice (n=6) are weighed and fasted for a two hour period prior to oral treatment.

CS(=O)(=O)c1ccc([C@@H](CC2CCCC2)C(=O)Nc2cnc(C#CCO)cn2)cc1Cl [Example 10, 2(R)-(3-Chloro-4-methanesulfonyl-phenyl)-3-cyclopentyl-N-[5-(3-hydroxy-prop-1-ynyl)-pyrazin-2-yl]-propionamide]
decrease in blood glucose compared to vehicle: statistically significant (p≦0.05) decrease in blood glucose

CN(C)CC#Cc1cnc(NC(=O)[C@H](CC2CCCC2)c2ccc(S(C)(=O)=O)c(Cl)c2)cn1 [Example 11, 2(R)-(3-Chloro-4-methanesulfonyl-phenyl)-3-cyclopentyl-N-[5-(3-dimethylamino-prop-1-ynyl)-pyrazin-2-yl]-propionamide]
decrease in blood glucose compared to vehicle: statistically significant (p≦0.05) decrease in blood glucose

CN(C)CCCc1cnc(NC(=O)[C@H](CC2CCCC2)c2ccc(S(C)(=O)=O)c(Cl)c2)cn1 [Example 16, 2(R)-(3-Chloro-4-methanesulfonyl-phenyl)-3-cyclopentyl-N-[5-(3-dimethylamino-propyl)-pyrazin-2-yl]-propionamide]
decrease in blood glucose compared to vehicle: statistically significant (p≦0.05) decrease in blood glucose

CS(=O)(=O)c1ccc(C(CC2CCCC2)C(=O)Nc2cnc(C=O)cn2)cc1Cl (centres unmarked) [Example 18, 2-(3-Chloro-4-methanesulfonyl-phenyl)-3-cyclopentyl-N-(5-formyl-pyrazin-2-yl)-propionamide]
decrease in blood glucose compared to vehicle: statistically significant (p≦0.05) decrease in blood glucose

CS(=O)(=O)c1ccc(C(CC2CCCC2)C(=O)Nc2cnc(CC3SC(=O)NC3=O)cn2)cc1Cl (centres unmarked) [Example 19, 2-(3-Chloro-4-methanesulfonyl-phenyl)-3-cyclopentyl-N-[5-(2,4-dioxo-thiazolidin-5-ylmethyl)-pyrazin-2-yl]-propionamide]
decrease in blood glucose compared to vehicle: statistically significant (p≦0.05) decrease in blood glucose

COC(OC)c1cnc(NC(=O)[C@H](CC2CCCC2)c2ccc(S(C)(=O)=O)c(Cl)c2)cn1 [Example 21, 2(R)-(3-Chloro-4-methanesulfonyl-phenyl)-3-cyclopentyl-N-(5-dimethoxymethyl-pyrazin-2-yl)-propionamide]
decrease in blood glucose compared to vehicle: statistically significant (p≦0.05) decrease in blood glucose

CC(=O)c1cnc(NC(=O)C(CC2CCCC2)c2ccc(S(C)(=O)=O)c(Cl)c2)cn1 (centres unmarked) [Example 23, N-(5-Acetyl-pyrazin-2-yl)-2-(3-chloro-4-methanesulfonyl-phenyl)-3-cyclopentyl-propionamide]
decrease in blood glucose compared to vehicle: statistically significant (p≦0.05) decrease in blood glucose

CS(=O)(=O)c1ccc([C@@H](CC2CCCC2)C(=O)Nc2cnc(C(O)C#N)cn2)cc1Cl (stereo partly drawn) [Example 26, 2(R)-(3-Chloro-4-methanesulfonyl-phenyl)-N-[5-(cyano-hydroxy-methyl)-pyrazin-2-yl]-3-cyclopentyl-propionamide]
decrease in blood glucose compared to vehicle: statistically significant (p≦0.05) decrease in blood glucose

C/C(=N/O)c1cnc(NC(=O)[C@H](CC2CCCC2)c2ccc(S(C)(=O)=O)c(Cl)c2)cn1 [Example 28, 2(R)-(3-Chloro-4-methanesulfonyl-phenyl)-3-cyclopentyl-N-[5-(1-(Z)-hydroxyimino-ethyl)-pyrazin-2-yl]-propionamide]
decrease in blood glucose compared to vehicle: statistically significant (p≦0.05) decrease in blood glucose

CS(=O)(=O)c1ccc([C@@H](CC2CCCC2)C(=O)Nc2cnc(C3OCCO3)cn2)cc1Cl [Example 41, 2(R)-(3-Chloro-4-methanesulfonyl-phenyl)-3-cyclopentyl-N-(5-[1,3]dioxolan-2-yl-pyrazin-2-yl)-propionamide]
decrease in blood glucose compared to vehicle: statistically significant (p≦0.05) decrease in blood glucose

COCCOc1cnc(NC(=O)[C@H](CC2CCCC2)c2ccc(S(C)(=O)=O)c(Cl)c2)cn1 [Example 43, 2(R)-(3-Chloro-4-methanesulfonyl-phenyl)-3-cyclopentyl-N-5-(2-methoxyethoxy-pyrazin-2-yl)-propionamide]
decrease in blood glucose compared to vehicle: statistically significant (p≦0.05) decrease in blood glucose
